Data taken from ChEMBL document CHEMBL1201862, “PubChem BioAssay data set” (2004).
One block for each compound: values may come before it. The source made the active and inactive calls.

What was measured:
[1] = molecular target: Heat shock protein HSP 90-alpha (Homo sapiens, UniProt P07900); assay: Luminescence-based dose response biochemical high throughput screening assay for inhibitors of the Heat Shock Protein 90 (HSP90). [Related pubchem assays: 1831 (Summary AID.), 1846 (Confirmation screen.), 1789 (Primary screen.)]
[2] = molecular target: FAD-linked sulfhydryl oxidase ALR (Homo sapiens, UniProt P55789); assay: inhibitors of human ALR sulfhydryl oxidase, dose response, biochemical, H2O2 detection, luminescence, cherry-pick (AID 493248)
[3] = P. falciparum Dd2 growth inhibitors, dose response, SYBR Green, dry powder samples, set 9 (AID 1159568); format: functional, cell-based
[4] = ADAM10 inhibitors, peptide cleavage, dose response, biochemical, QFRET (AID 743254);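 also: ADAM10 enzyme with the DM2 quenched FRET peptide as substrate; EDANS fluorescence gain as the protease cuts the substrate; inhibitor potency against ADAM10 proteolytic activity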
[5] = molecular target: Disintegrin and metalloproteinase domain-containing protein 17 (Homo sapiens, UniProt P78536); assay: ADAM17 protease inhibitors, dose response, counter-screen for ADAM10 exosite inhibitor project, biochemical, quenched FRET substrate (AID 743253)
[6] = Vero cell cytotoxicity, dose response, cytotoxicity control for Vif-APOBEC3G degradation inhibitor project, Vero cells (AID 1117358); format: functional; conditions: Human immunodeficiency virus 1, Vero
[7] = inhibitors of HIV Env-driven cell fusion, dose response, cherry-pick (AID 652057); format: functional, cell-based
[8] = CEM21 lymphoblast cell cytotoxicity, dose response, cytotoxicity control for viral fusion inhibitor project, CellTiter-Glo luminescence, cherry-picked (AID 652042); format: functional, cell-based;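 also: potency for signal decrease meaning cytotoxicity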
[9] = ZM109 Env clade C HIV-1 fusion inhibitors, dose response, HeLa effector, CEM target cells, luciferase, cherry-pick (AID 652058); format: functional, cell-based
[10] = inhibitors of clade B AD8 Env fusion, dose response, cell-based, cherry-pick (AID 652062); format: functional;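 also: luciferase signal from cell-cell fusion driven by HIV-1 clade B AD8 Env; potency is for inhibitors of fusion seen as a drop in luminescence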
[11] = molecular target: T1, Ubiquitin-conjugating enzyme E2 N (Homo sapiens, UniProt P61088); format: functional;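 also: Dose-response confirmation in a TR-FRET assay detecting UBC13-driven polyubiquitin chain formation, inhibition measured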
T1 sequence (P61088 whole entry): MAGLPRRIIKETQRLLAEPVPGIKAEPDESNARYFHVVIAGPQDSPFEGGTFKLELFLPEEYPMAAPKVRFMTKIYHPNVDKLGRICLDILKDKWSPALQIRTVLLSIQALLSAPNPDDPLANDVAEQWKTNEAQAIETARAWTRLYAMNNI

[12] = P. falciparum late gametocyte killing, dose response, luminescence (AID 1117278); format: functional, cell-based;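 also: gametocytes exposed to compound for 24 hours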
[13] = Jurkat T cell cytotoxicity, dose response, cytotoxicity control for P. falciparum gametocyte viability project, luminescence (AID 1117277); format: functional, cell-based;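 also: potency reflects loss of cellular ATP meaning fewer viable cells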
[14] = molecular target: Peroxisome proliferator-activated receptor gamma/Nuclear receptor corepressor 2 (Homo sapiens, UniProt P37231+Q9Y618); assay: Counterscreen for NR2E3 inverse agonists: TR-FRET-based biochemical high throughput dose response assay to identify inverse agonists of the interaction between peroxisome proliferator-activated receptor gamma (PPARg) and nuclear receptor co-repressor 2 (NCOR2).; format: functional
[15] = molecular target: Photoreceptor-specific nuclear receptor (Homo sapiens, UniProt Q9Y5X4); assay: NR2E3 inverse agonists, dose response, biochemical, TR-FRET (AID 463256); format: functional
Galanin receptor type 3 = Galanin receptor type 3 (Homo sapiens, UniProt O60755); assay: Fluorescence-based cell-based primary high throughput dose response assay to identify antagonists of the Galanin Receptor 3 (GalR3).; format: functional
cells [16] = format: functional, cell-based; conditions: HEK-CNG
[17] = molecular target: T2, COUP transcription factor 2 (Homo sapiens, UniProt P24468); assay: Luminescence-based cell-based high throughput dose response assay to identify inhibitors of COUP-TFII (NR2F2).; format: functional;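 also: HEK293 cells transiently cotransfected with COUP-TFII expression vector and reporter; luciferase reporter luminescence driven by COUP-TFII from the pX2-168 reporter plasmid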
T2 sequence (P24468 whole entry): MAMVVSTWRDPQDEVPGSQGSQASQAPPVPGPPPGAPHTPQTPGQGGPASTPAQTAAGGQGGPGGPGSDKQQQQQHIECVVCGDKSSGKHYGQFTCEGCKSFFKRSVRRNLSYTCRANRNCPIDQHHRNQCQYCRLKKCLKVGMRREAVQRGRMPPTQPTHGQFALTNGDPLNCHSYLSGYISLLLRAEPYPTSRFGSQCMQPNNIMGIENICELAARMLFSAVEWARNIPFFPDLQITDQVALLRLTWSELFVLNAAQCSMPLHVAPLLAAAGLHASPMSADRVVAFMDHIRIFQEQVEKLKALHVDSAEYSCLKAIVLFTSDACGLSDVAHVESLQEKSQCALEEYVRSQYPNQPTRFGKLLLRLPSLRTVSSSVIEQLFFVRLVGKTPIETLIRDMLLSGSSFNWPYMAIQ

[18] = molecular target: T3, Low molecular weight phosphotyrosine protein phosphatase (Homo sapiens, UniProt P24666); assay: LMPTP phosphatase inhibitors, dose response, biochemical, OMFP substrate, fluorescence intensity, set 2 (AID 743307); format: functional
T3 sequence (P24666 whole entry): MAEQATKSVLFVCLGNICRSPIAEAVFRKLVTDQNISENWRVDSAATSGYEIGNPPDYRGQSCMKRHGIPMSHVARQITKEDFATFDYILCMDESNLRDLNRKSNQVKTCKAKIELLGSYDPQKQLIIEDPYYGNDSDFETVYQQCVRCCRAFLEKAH

[19] = molecular target: T3, Low molecular weight phosphotyrosine protein phosphatase; assay: LMPTP phosphatase inhibitors, colorimetric pNPP readout, dose response, orthogonal assay, biochemical, absorbance, pNPP substrate, LMPTP-A isoform, set 2 (AID 743308); format: functional
cells [20] = format: functional, cell-based
[21] = inhibitors of intracellular T. cruzi replication, confirmation, NIH3T3 host cells, beta-gal luminescence (AID 2044); format: functional, cell-based;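 also: intracellular parasites grown in NIH/3T3 mouse fibroblasts as host cells; luminescent beta-galactosidase reporter signal from transgenic T. cruzi replicating inside host cells; inhibitors lower the luminescence signal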
cells [22] = format: functional, cell-based; remark: listed apart in the source
[23] = cytotoxicity toward NIH3T3 fibroblasts, dose response, counter-screen, cell-based, ATP luminescence, mouse fibroblasts (AID 2010); format: functional;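 also: cells exposed to compound for about 90 hours before reading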
INS1 = assay: beta cell apoptosis inhibitors, cytokine rescue, dose response, luminescence, retest (AID 449756); format: functional, cell-based; conditions: Rattus norvegicus;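 also: cell death triggered by IL-1 beta plus TNF-alpha plus IFN-gamma mixture; protective hits raise ATP signal compared with cytokine alone wells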
[24] = molecular target: DNA (cytosine-5)-methyltransferase 1 (Homo sapiens, UniProt P26358); assay: DNMT1 methyltransferase inhibitors, confirmation, biochemical, fluorescent molecular beacon (AID 602386); format: functional
[25] = molecular target: SWI/SNF-related matrix-associated actin-dependent regulator of chromatin subfamily A member 2 (Homo sapiens, UniProt P51531); assay: Luminescence-based cell-based high throughput dose response assay to identify activators of the function of SWI/SNF related, matrix associated, actin dependent regulator of chromatin, subfamily a, member 2 (SMARCA2, BRM).; format: functional
[26] = Counterscreen for activators of the function of SWI/SNF related, matrix associated, actin dependent regulator of chromatin, subfamily a, member 2 (SMARCA2, BRM): Luminescence-based cell-based high throughput dose response assay to identify non-selective compounds using the VP16 reporter assay.; format: functional
[27] = molecular target: T4, DNA repair protein RAD52 homolog (Homo sapiens, UniProt P43351); format: functional, biochemical
T4 sequence (P43351 whole entry): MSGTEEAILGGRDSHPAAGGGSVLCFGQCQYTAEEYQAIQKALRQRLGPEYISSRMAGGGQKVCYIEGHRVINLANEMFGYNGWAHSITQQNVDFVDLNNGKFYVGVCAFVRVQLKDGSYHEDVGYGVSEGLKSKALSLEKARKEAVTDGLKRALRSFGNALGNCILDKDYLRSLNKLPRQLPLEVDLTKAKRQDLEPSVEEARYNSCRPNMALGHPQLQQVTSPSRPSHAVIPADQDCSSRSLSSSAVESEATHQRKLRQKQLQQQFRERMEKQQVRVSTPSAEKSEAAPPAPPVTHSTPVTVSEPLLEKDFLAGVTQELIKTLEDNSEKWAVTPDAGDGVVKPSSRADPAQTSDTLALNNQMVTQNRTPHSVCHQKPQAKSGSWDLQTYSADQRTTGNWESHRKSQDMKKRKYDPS

[28] = molecular target: E3 ubiquitin-protein ligase UHRF1 (Homo sapiens, UniProt Q96T88); assay: Counterscreen for inhibitors of 5-meCpG-binding domain protein 2 (MBD2): TRFRET-based biochemical high throughput dose response assay to identify inhibitors of binding of ubiquitin-like with PHD and ring finger domains 1 (UHRF1) to methylated oligonucleotide.
Kallikrein-7 = Kallikrein-7 (Homo sapiens, UniProt P49862); assay: Fluorescence Intensity-based biochemical primary high throughput dose response assay to identify activators of kallikrein-7 (K7) zymogen.
[29] = Shn3 3'UTR reporter inhibitors, dose response, cell-based, Clone20 osteoblasts, firefly luciferase, cherry-picked (AID 624132); format: functional;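 also: firefly luciferase luminescence from reporter carrying the Shn3 3'UTR in osteoblasts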
[30] = HepG2 cell cytotoxicity, dose response, cytotoxicity control for Shn3 inhibitor project, CellTiter-Glo, cherry-picked (AID 624134); format: functional, cell-based
[31] = control 3'UTR Renilla luciferase suppression, dose response, counter-screen for Shn3 inhibitor project, cell-based, Clone20-Shn3RL, cherry-picked (AID 624133); format: functional
[32] = molecular target: 1-phosphatidylinositol 4,5-bisphosphate phosphodiesterase gamma-1 (Homo sapiens, UniProt P19174); assay: Counterscreen for inhibitors of phospholipase C isozymes (PLC-B3): Fluorescence-based biochemical high throughput dose response assay to identify inhibitors of phospholipase C isozymes (PLC-gamma1).
[33] = molecular target: 1-phosphatidylinositol 4,5-bisphosphate phosphodiesterase beta-3 (Homo sapiens, UniProt Q01970); assay: Fluorescence-based biochemical high throughput dose response assay to identify inhibitors of phospholipase C isozymes (PLC-B3).
[34] = molecular target: Endoplasmic reticulum aminopeptidase 1 (Homo sapiens, UniProt Q9NZ08); assay: ERAP1 aminopeptidase inhibitors, dose response, biochemical, cherry-pick, set 2, plate reader (AID 743314)
[35] = molecular target: RNA-editing ligase 1, mitochondrial (Trypanosoma brucei brucei, UniProt P86926); assay: TbREL1 ligase inhibitors, dose response, biochemical, fluorescence, Trypanosoma brucei (AID 1117295); format: functional
[36] = miR-122 activators in hepatoma reporter cells, dose response, cell-based, Huh7 psiCHECK-miR122, Renilla luciferase, cherry-picked (AID 651956); format: functional;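 also: huh7 hepatoma cells stably carrying a psiCHECK-2 miR-122 sensor plasmid; renilla luciferase signal reporting endogenous miR-122 activity after 48 h compound exposure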
[37] = HEK293T cytotoxicity, dose response, cytotoxicity control for miR-122 modulator project, cell-based, activator set, cherry-pick (AID 720690); format: functional;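 also: HEK293T human cells scored for general mammalian cytotoxicity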

RNA-editing ligase 1, mitochondrial, sequence (P86926 whole entry): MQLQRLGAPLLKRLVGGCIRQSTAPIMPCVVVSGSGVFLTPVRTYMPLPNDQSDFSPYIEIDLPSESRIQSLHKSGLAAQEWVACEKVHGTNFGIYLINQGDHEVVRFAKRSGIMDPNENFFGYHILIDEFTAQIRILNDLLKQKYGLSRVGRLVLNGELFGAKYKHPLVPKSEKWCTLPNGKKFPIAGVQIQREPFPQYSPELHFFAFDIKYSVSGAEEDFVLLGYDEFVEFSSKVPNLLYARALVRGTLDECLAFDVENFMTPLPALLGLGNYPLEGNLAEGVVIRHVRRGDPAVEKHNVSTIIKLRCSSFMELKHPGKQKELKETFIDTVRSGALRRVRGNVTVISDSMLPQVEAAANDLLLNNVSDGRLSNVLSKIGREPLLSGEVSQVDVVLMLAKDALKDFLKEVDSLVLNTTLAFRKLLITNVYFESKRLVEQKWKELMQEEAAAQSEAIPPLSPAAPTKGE
Peroxisome proliferator-activated receptor gamma/Nuclear receptor corepressor 2, sequence (P37231 whole entry): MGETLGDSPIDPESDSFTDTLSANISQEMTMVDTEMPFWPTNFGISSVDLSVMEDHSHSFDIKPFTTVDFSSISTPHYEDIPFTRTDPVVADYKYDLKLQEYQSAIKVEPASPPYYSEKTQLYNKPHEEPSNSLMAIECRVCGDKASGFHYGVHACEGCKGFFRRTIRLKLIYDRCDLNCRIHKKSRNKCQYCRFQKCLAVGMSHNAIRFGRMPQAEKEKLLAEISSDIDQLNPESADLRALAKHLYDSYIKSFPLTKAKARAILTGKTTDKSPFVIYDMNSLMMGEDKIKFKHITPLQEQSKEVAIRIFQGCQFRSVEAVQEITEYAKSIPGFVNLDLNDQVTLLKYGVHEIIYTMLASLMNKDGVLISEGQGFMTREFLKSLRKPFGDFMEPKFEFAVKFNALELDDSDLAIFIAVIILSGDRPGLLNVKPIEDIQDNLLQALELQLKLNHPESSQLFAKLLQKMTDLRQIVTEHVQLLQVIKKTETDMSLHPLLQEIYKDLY
Peroxisome proliferator-activated receptor gamma/Nuclear receptor corepressor 2, sequence (Q9Y618 whole entry): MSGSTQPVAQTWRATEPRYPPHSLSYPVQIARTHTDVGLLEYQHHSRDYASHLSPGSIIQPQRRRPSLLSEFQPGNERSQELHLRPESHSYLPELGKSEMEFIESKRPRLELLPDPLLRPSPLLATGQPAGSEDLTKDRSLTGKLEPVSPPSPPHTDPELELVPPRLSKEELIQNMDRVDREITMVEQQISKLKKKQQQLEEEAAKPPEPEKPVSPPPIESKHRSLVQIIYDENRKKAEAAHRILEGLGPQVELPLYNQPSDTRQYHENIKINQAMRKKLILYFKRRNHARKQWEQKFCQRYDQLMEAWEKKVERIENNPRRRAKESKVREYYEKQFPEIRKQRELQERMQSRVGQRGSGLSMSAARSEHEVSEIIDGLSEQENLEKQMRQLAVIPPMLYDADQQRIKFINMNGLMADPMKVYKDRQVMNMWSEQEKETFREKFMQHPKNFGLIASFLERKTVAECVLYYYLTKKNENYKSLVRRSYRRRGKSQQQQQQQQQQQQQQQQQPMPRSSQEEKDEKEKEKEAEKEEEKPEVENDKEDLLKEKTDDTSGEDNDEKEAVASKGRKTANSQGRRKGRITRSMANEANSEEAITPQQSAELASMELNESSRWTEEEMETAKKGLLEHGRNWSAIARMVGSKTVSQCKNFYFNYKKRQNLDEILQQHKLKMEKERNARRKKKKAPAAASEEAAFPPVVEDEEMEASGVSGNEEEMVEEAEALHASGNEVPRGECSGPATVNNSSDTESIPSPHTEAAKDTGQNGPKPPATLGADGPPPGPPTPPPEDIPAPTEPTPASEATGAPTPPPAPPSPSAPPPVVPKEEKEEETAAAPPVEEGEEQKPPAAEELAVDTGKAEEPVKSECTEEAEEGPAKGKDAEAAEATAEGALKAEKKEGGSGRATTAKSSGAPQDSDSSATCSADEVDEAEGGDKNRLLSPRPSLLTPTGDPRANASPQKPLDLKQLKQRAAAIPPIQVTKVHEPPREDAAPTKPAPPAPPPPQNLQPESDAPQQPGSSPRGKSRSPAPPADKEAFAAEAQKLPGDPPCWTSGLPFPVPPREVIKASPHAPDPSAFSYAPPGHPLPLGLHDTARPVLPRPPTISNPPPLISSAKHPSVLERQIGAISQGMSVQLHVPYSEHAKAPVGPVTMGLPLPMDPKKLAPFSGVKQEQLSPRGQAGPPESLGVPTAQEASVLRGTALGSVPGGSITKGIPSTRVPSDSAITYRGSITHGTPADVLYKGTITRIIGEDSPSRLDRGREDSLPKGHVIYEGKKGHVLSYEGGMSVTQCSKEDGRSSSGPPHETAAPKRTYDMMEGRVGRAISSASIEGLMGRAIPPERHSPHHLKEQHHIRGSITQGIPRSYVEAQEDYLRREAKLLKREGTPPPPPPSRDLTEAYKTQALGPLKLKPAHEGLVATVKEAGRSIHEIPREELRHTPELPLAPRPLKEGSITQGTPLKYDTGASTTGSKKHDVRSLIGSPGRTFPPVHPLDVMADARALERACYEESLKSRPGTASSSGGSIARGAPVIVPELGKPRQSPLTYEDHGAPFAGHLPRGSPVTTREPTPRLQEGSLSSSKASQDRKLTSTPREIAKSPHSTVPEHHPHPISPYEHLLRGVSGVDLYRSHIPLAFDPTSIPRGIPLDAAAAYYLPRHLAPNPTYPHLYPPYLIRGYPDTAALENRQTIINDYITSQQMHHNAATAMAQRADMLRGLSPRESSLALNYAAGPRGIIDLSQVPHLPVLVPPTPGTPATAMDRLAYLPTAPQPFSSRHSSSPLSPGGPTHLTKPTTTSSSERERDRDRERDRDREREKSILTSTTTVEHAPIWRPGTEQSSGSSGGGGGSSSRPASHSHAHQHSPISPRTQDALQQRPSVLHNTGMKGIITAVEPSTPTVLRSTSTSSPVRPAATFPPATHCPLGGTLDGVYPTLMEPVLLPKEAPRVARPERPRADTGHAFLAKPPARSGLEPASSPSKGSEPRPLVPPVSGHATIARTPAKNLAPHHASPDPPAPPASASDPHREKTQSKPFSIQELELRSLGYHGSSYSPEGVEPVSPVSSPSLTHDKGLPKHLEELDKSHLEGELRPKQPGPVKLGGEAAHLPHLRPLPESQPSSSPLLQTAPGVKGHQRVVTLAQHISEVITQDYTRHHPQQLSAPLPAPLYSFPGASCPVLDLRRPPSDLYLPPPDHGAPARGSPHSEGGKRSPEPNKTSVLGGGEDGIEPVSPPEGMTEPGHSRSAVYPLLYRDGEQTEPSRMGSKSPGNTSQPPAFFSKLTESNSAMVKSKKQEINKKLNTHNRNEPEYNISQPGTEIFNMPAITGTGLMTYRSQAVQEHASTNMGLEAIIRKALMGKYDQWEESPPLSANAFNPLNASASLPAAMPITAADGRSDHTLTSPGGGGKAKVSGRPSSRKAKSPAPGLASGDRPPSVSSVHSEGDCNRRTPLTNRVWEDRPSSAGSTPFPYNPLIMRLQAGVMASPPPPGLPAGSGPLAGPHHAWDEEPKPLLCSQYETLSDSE
Photoreceptor-specific nuclear receptor, sequence (Q9Y5X4 whole entry): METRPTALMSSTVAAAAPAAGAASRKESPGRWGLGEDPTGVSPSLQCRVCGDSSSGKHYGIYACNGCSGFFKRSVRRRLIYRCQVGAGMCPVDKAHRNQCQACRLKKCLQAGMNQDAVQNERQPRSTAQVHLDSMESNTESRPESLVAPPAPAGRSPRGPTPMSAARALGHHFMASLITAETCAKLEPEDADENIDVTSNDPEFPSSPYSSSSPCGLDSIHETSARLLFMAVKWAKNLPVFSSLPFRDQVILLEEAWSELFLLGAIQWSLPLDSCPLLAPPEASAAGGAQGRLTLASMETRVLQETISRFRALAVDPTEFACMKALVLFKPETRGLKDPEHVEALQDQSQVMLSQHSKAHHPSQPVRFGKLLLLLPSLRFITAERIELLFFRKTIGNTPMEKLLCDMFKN
Galanin receptor type 3, sequence (O60755 whole entry): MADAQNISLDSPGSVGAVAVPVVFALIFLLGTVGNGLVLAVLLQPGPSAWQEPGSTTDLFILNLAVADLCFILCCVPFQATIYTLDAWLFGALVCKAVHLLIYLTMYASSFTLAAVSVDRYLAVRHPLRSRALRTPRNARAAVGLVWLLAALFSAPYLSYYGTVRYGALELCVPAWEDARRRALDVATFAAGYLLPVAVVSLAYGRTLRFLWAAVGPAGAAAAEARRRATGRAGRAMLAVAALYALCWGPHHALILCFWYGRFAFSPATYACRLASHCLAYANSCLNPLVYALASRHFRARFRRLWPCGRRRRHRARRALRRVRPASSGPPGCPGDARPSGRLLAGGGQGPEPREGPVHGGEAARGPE
Kallikrein-7, sequence (P49862 whole entry): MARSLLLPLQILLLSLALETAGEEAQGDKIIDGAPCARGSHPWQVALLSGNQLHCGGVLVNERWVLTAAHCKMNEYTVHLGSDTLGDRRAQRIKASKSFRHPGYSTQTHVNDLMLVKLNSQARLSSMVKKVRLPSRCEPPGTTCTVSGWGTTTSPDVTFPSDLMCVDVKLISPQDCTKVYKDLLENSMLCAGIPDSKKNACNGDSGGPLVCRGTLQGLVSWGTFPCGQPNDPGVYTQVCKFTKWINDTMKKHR
FAD-linked sulfhydryl oxidase ALR, sequence (P55789 whole entry): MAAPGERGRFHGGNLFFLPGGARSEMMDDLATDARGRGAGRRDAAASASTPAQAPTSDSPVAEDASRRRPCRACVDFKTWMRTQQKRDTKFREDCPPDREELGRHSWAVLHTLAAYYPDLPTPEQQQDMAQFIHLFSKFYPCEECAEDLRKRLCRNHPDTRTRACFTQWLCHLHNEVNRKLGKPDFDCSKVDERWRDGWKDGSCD

Compound: O=C(O)C[C@H]1CC[C@@H]2[C@H](COC[C@@H](O)CN2S(=O)(=O)c2ccc(Oc3ccccc3)cc2)O1
AC50 [3]: 31.1 µM (active)

Compound: Cc1ccc(C)c(S(=O)(=O)Nc2ccc3scnc3c2)c1
CC50 [6]: > 40 µM (active)

Compound: C[C@@H]1CN([C@H](C)CO)S(=O)(=O)c2ccc(C3=CCCCC3)cc2O[C@@H]1CN(C)S(=O)(=O)c1ccc(F)cc1
AC50 [7]: 8.56 µM (active)
AC50 [8]: 32.5 µM (active)
AC50 [9]: 12.1 µM (active)
AC50 [10]: 7.76 µM (active)

Compound: Cc1cc(C)c2nc(-c3ccccn3)cc(C(=O)n3cccn3)c2c1
IC50 [11]: > 20 µM (inactive)
IC50 [12]: > 109 µM (inactive)
IC50 [13]: > 83.2 µM (inactive)

Compound: O=C(Nc1ccccn1)C1CCN(S(=O)(=O)c2cccc3nonc23)CC1
IC50 [12]: > 109 µM (inactive)
IC50 [13]: > 83.3 µM (inactive)

Compound: Cc1ccccc1Cn1c(C)nc2ccccc21
IC50 (Galanin receptor type 3): 331 nM (active)
EC50 (cells [16]): > 29.9 µM (inactive)
IC50 [17]: 13.2 µM (inactive)

Compound: CCN(CC)CCC(=O)Nc1cccc2c1C(=O)c1ccccc1C2=O
EC50 (cells [20]): > 350 µM (not active)
EC50 [21]: 610 nM (active)
EC50 (cells [22]): 59.3 µM (active)
EC50 [23]: 13.4 µM (active)
AC50 (INS1): 4.28 µM (active)
IC50 [24]: 6.86 µM (active)
EC50 [25]: 9.64 µM (active)
EC50 [26]: > 91.3 µM (inactive)
AC50 [27]: 801 nM (active)
IC50 [28]: > 43.8 µM (inactive)

Compound: Nc1nonc1C(=O)NCCNCc1cc(Br)ccc1OCc1ccccc1F
AC50 [29]: 2.5 µM (active)
AC50 [30]: 40.4 µM (active)
AC50 [31]: 910 nM (active)
AC50 [8]: 40.5 µM (active)
AC50 [10]: 14.9 µM (active)

Compound: COC(=O)[C@H]1[C@H](CO)[C@H]2Cn3c(ccc(/C=C/c4ccccc4)c3=O)[C@@H]1N2C(=O)C1CCC1
AC50 [34]: 4.93 µM (active)

Compound: CN1C(=O)c2cc(NC(=O)c3ccc(C(F)(F)F)cc3)ccc2OC[C@H]2O[C@H](CC(=O)NCc3ccc4c(c3)OCO4)CC[C@@H]21
AC50 [36]: 8.04 µM (active)
AC50 [37]: 22 µM (active)
AC50 [3]: 12.6 µM (active)

Compound: CC[C@@H](C)[C@@H]1CN([C@@H](C)CN2CCC[C@H]2CN2C(N)=NC[C@H]2C(C)C)C(=N)N1CCc1ccc(Cl)c(Cl)c1
IC50 [11]: > 20 µM (inactive)
IC50 [35]: > 96.6 µM (inactive)

More lines, now with the values ahead:

IC50 [1]: 8.93 µM (active)
AC50 [2]: 3.31 µM (active)
Compound: O=C(O)c1cccc(N2C(=O)/C(=C/c3nc4ccccc4[nH]3)SC2=S)c1

IC50 [4]: 10.3 µM (inactive)
IC50 [5]: > 69.5 µM (inactive)
Compound: CCCCCCNC(=O)O[C@H]1Cn2c(=O)n(CCCCCC)c(=O)n2[C@@H]2CN(S(=O)(=O)c3ccc(C)cc3)C[C@]12O

IC50 [14]: 10.9 µM (not active)
IC50 [15]: 8.84 µM (active)
Compound: O=C(Nc1ccc(Cl)cc1)c1ccc(-c2ccccn2)s1

IC50 [18]: 1.54 µM (active)
IC50 [19]: 2.88 µM (active)
Compound: Clc1ccc(-c2cc(NCCCN3CCCCC3)c3ccccc3n2)cc1

IC50 [14]: 4.01 µM (active)
IC50 [15]: 3.62 µM (active)
Compound: O=C(Nc1ccc(-c2ccc3nncn3n2)cc1)c1ccc(Br)o1

EC50 (Kallikrein-7): > 69.5 µM (inactive)
Compound: O=C1c2ccccc2NC(c2ccccc2)N1Cc1ccco1 (stereo unspecified)

IC50 [32]: > 122 µM (inactive)
IC50 [33]: > 122 µM (inactive)
Compound: COc1cc(C(=O)Nc2ccc3c(c2)C(=O)N(CCC(=O)O)C3=O)cc(OC)c1OC

IC50 [35]: > 96.6 µM (inactive)
Compound: COC(=O)C1=C(C)N(Cc2cccc(C(F)(F)F)c2)C(NCc2ccccc2C(F)(F)F)=NC1c1ccccc1C(F)(F)F (stereo unspecified)

IC50 [18]: > 80 µM (inactive)
IC50 [19]: > 80 µM (inactive)
Compound: c1ccc(-c2nc(N3CCCCC3)c3ccccc3n2)cc1
